Patent US7740841B1, “Therapeutic method for reducing angiogenesis” (Sunnybrook Health Science Center, priority 2000, dated 2010)

What was measured:
[1] = test system: bFGF induced vascularization; assay: In vivo Matrigel plug angiogenesis assay; design: species or system Balb/cJ mice; conditions: DC101 800 μg i.p. and/or vinblastine 1 mg/m^2 i.p. on day 4 and 7, sacrifice day 10
[2] = test system: SK-N-AS human neuroblastoma xenografts; assay: Tumor perfusion by FITC-Dextran fluorescence; format: in vivo, CB-17 SCID mice; conditions: vinblastine 1 mg/m^2 i.p. and/or DC101 800 μg i.p. every three days, 10 days
Method: Relative tumor vascularity assessed by an FITC-Dextran perfusion assay: The method was designed to assess the relative functionality of the tumor vasculature. 2×10^6 SK-N-AS neuroblastoma cells were injected into the flanks of CB-17 SCID mice. Tumors were allowed to grow to approximately 0.75 cm^3 at which point tumor bearing mice were then treated with 1 mg/m^2 vinblastine i.p. every three days, 800 μg DC101 i.p. every three days, combination of the two agents or saline as a control. […] Fluorescence readings were obtained on a FL600 Fluorescence Plate Reader (Bio-tek Instruments Inc., Winooski, Vt., USA), from a standard curve created by serial dilution of the FITC-dextran used for injection. The ratio of tumor fluorescence:plasma fluorescence was assumed to be reflective of the degree of tumor perfusion.
Tumor perfusion by assessment of intravascular fluorescence: To further explore the possibility that tumor regression induced with treatment using DC101 and vinblastine was indeed due to the vascular injury, rather than a direct anti-tumor cell effect, we assessed tumor perfusion directly by using a FITC-Dextran fluorescence method. […]

[3] = mouse, in vivo
SK-N-MC cells = assay: In vitro drug sensitivity, 3H-thymidine incorporation; format: cell-based, human; conditions: 100-400 ng/ml, 24 hours
Text: (§1) Cells and culture conditions: Neuroblastoma cell lines SK-N-MC, SK-N-AS were obtained from American Type Culture Collection (ATCC) and expanded as a monolayer culture by serial passage on tissue culture plates (Nunc, Denmark) in DMEM, 5% fetal bovine serum (Gibco, Grand Island, N.Y., USA). Human umbilical vein endothelial cells (HUVEC) (Clonetics, San Diego, Calif.) were expanded on 1% gelatin-coated tissue culture plates in MCDB131 culture medium (JRH Biosciences, Lenexa, Kans., USA) supplemented with 5 ng/ml bFGF (R&D, Minneapolis, Minn.), 10 units/ml heparin (Wyeth-Ayerst Canada), 10 ng/ml EGF (UBI, Lake Placid, N.Y.) and 10% fetal bovine serum.
In vitro determination of drug sensitivity: Three thousand cells in 200 μl growth media per well were plated in 96-well flat bottom tissue culture plates (Nunc, Denmark) and incubated at 37° C., 5% CO2 for 24 hours prior to initiation of treatment. The cells were then washed with PBS and treated with 1-500 ng/ml vinblastine sulphate (Calbiochem, La Jolla, Calif.) for 24 hours, in groups of eight wells per dose. […] Incorporated radioactivity was measured on Wallac 1205 BetaPlate Scintillation Counter (Wallac Oy, Finland) and proliferation was expressed as a percentage of ^3H-thymidine in treated cells vs. that in controls. […]

[4] = mouse, in vivo; cited from earlier work
HUVEC = assay: In vitro drug sensitivity, 3H-thymidine incorporation; format: cell-based, human; conditions: 24 hours
Text: as §1
(§2) In vitro determination of drug sensitivity: Three thousand cells in 200 μl growth media per well were plated in 96-well flat bottom tissue culture plates (Nunc, Denmark) and incubated at 37° C., 5% CO2 for 24 hours prior to initiation of treatment. […] The cells were then pulsed for 6 hrs with 2 μCi/well of methyl-^3H-thymidine (Amersham Life Science, Buckinghamshire, England). The plates were frozen, thawed and the DNA harvested onto a filtermat using a Titertek Cell Harvester. Incorporated radioactivity was measured on Wallac 1205 BetaPlate Scintillation Counter (Wallac Oy, Finland) and proliferation was expressed as a percentage of ^3H-thymidine in treated cells vs. that in controls.
(§3) All three cell lines were grown in DMEM with […], but the HUVEC were grown on gelatinized plates and in the presence of additional growth factors (bFGF and EGF).

SK-N-AS cells = assay: as above; format: cell-based, human; conditions: 100-400 ng/ml, 24 hours
Text: as §1, §2, §3

[5] = test system: neuroblastoma xenograft tumors; assay: Histopathologic analysis of tumors (H/E and TUNEL); format: in vivo, CB-17 SCID mice; conditions: excised tumors; combination group at 7.5 weeks of treatment
Text: Histology: All tumors were excised, fixed in 10% (v/v) formalin and processed for immunohistochemical analysis. To obtain adequate tissue for the combination treatment group, two mice were sacrificed at 7.5 weeks of treatment. Paraffin blocks were cut to 5 μm sections and stained with haematoxylin/eosin for morphology evaluation and with Apoptosis Detection System (Promega, Madison, Wis.) for assessment of programmed cell death.
Histopathologic analysis: To further elucidate the mechanisms involved in the tumor regression following treatment with vinblastine, DC101, or the combined therapy, tissue histopathology assessment was undertaken. Cancer cells with high nuclear to cytoplasmic ratio form cuffs around central vessels, and apoptotic cells characterized by pyknotic nuclei and cytoplasmic blebbing, are only evident as a thin rim at the periphery of the cuffs. The nuclei of these cells stain strongly for terminal deoxynucleotidyl transferase (TUNEL) reactivity, as expected for cells undergoing apoptosis. […] There is a close similarity of the appearance of H/E and TUNEL stain. […] Rather than a typical single layer of flattened endothelial cells surrounding the vascular lumen in untreated group, we observed edema, and detachment from surrounding basement membrane and leading to complete vascular wall disintegration and tumor cell death.

[6] = test system: SK-N-MC neuroepithelioma or SK-N-AS neuroblastoma xenografts; assay: In vivo tumor growth assessment, subcutaneous xenografts; design: species or system CB-17 SCID mice; conditions: established ~0.75 cm^3 xenografts; DC101 800 μg i.p. every three days; low-dose vinblastine
Method: In vivo tumor growth assessment: SK-N-MC, cells were harvested using 1% Trypsin EDTA (GibcoBRL, Gaithesburg, Md.), and single cell suspension of 2×10^6 cells in 0.2 ml of growth media was injected subcutaneously into the flanks of 4-6 week old CB-17 SCID mice (Charles River, St-Constant, Quebec). Approximately 3 weeks later, most tumors had grown to ˜0.75 cm^3, and mice were randomized into groups of 5 animals. Two independent experiments were performed, each totaling 20 animals in 4 groups. The treatment was as follows:
Group I (Control)—0.4 ml of PBS (DC101 vehicle) i.p. every three days and 0.15 ml injectable saline (vinblastine vehicle) i.p. every three days.
Group II—0.4 ml of 2 mg/ml DC101 antibody (800 μg/mouse) (24) every three days and 0.15 ml of injectable saline i.p. every three days
Group III—vinblastine sulfate 0.75 mg/m^2 i.p. bolus at the start of therapy, followed by 1 mg/m^2/day via subcutaneous Alzet osmotic pumps (Alza Corp, Palo Alto, Calif.) for 3 weeks, followed by maintenance therapy with 0.15 ml of 0.067 mg/ml vinblastine sulfate (1.5 mg/m^2) i.p. every three days, and 0.4 ml of PBS i.p. every three days
Group IV—combination of DC101 and vinblastine at doses identical to the single agent groups. […]

For CC[C@]1(O)C[C@@H]2CN(CCc3c([nH]c4ccccc34)[C@@](C(=O)OC)(c3cc4c(cc3OC)N(C)[C@H]3[C@@](O)(C(=O)OC)[C@H](OC(C)=O)[C@]5(CC)C=CCN6CC[C@]43[C@@H]65)C2)C1 [vinblastine, vinblastine sulphate], the “bFGF induced vascularization of Matrigel plug (plug:plasma fluorescence)” value [1] was 62.5 % of the positive control group, the “decrease in tumor perfusion (tumor:plasma fluorescence)” value [2] was 41% and the “body weight / toxicity profile” value [3] was “some weight gain retardation, but the differences never became significantly different from controls”. For the same molecule, the “inhibition of proliferation (3H-thymidine incorporation)” value (“inhibition of proliferation” for short) (SK-N-MC cells) was “strongly inhibited”, the “MTD in mice relative to MTD in humans” value [4] was 4-5 times and the “inhibition of proliferation” value (HUVEC; 0.78 ng/ml) was “retained almost the same degree of inhibitory activity”. The “inhibition of proliferation” value (HUVEC; 100-400 ng/ml) was “strongly inhibited, especially HUVEC”, the “inhibition of proliferation” value (SK-N-AS cells) was “strongly inhibited” and the “tumor histology (H/E, TUNEL apoptosis)” value [5] was “increase in the width of the apoptotic rims”. For the same molecule, the “effect on tumor growth” value [6] was “significant, albeit not sustained, regression of tumor growth”.
